{"source": "patent US7582609B2", "about": "“Method for the treatment of skin fibrosis and suitable compositions for such treatment” (Digna Biotech, S.L., priority 2006, dated 2009)", "system": "bleomycin-induced skin sclerosis", "settings": "mouse, in vivo", "procedure": "Two emulsions or creams were prepared, an emulsion containing peptide P144 and a control emulsion with the vehicle for administration but without P144.\nThe control emulsion with the vehicle for administration was prepared by a procedure that starts with mixing of the components that are shown below in Table 2:\nNext, this mixture was heated at 70° C. and was emulsified with 44.4 g of distilled water (also at 70° C.).\nThe emulsion containing the P144 was prepared as previously, except that the 44.4 g of water was replaced with a mixture of 44.28 g of water plus 0.010 g of P144 previously dissolved in 100 μl of dimethylsulphoxide.\nThe test was carried out using 6-week-old female C3H mice, supplied by Harlan SL (Spain). Development of skin sclerosis in the mice was induced by the administration of bleomycin (Sigma, Spain) dissolved in PBS at a concentration of 100 μg/ml and sterilized by filtration. The mice were injected with the bleomycin subcutaneously in the skin of the back, previously shaved, at daily doses of 100 μl of the solution in PBS injected with size 27 needles. […]\nThe thickness of the dermis was measured on the digitized images of the sections stained with haematoxylin and eosin, and then the percentage variation in thickness of the dermis was calculated relative to the mean of the values obtained for the mice treated with PBS, adjusted to 100%. […]", "note": "Ends that are not written are not given here."}
{"sequence": "TSLDASIIWAMMQN [Peptide P144]", "values": [{"measurement": "morphological changes in the epidermis", "value": "No changes were observed"}, {"measurement": "signs of systemic toxicity", "value": "without signs of systemic toxicity"}]}
